Data published in patent publication US6187754A, “Sialyl-Lewisa and sialyl-Lewisx epitode analogues” (GlycoTech Corp., priority 1996, dated 2001).

How the values were obtained:
[1] = Remark on solubility in NMR characterisation; type: physicochemical; conditions: CD3OD-D2O-CDCl3 (NMR solvent); no 13C NMR
[2] = Remark on oxidation sensitivity in NMR characterisation; type: physicochemical; conditions: no long-term 13C-NMR measurement

Compound	solubility [1]	sensitivity to oxidation in organic solvents [2]
COC(=O)CCCCCCCCO[C@@H]1O[C@H](CO)[C@@H](O[C@@H]2O[C@H](CO)[C@H](O)[C@H](O[C@]3(C(=O)O)C[C@H](O)[C@@H](NC(C)=O)[C@H]([C@H](O)[C@H](O)CO)O3)[C@H]2O)[C@H](O)[C@H]1NC(=O)c1cnc2nc(N)nc(O)c2n1 [(59)]	poor solubility	
COC(=O)CCCCCCCCO[C@@H]1O[C@H](CO)[C@@H](O)[C@H](O[C@@H]2O[C@H](CO)[C@H](O)[C@H](O[C@]3(C(=O)O)C[C@H](O)[C@@H](NC(C)=O)[C@H]([C@H](O)[C@H](O)CO)O3)[C@H]2O)[C@H]1NC(=O)c1ccc(O)c(O)c1 [(73)]		sensitivity of the compound to oxidation in organic solvents
